Tested on: GNS166 cells
Assay: Label-free proteomics differential expression
Format: cell-based, human
Protocol: Proteomic studies were performed by the Proteomics Facility of the CIC bioGUNE by label-free relative quantification on nLC MS/MS. […] In both approaches, the top 20 enriched terms were plotted and the pathways were clustered using divisive hierarchical clustering based on pairwise Jaccard distances.

## C#CCN(Cc1cc2cc(OCCCN3CCCCC3)ccc2n1S(=O)(=O)c1ccccc1)C(=O)CCCCCCC(=O)NO [DDI]
Protein Q13112 GN=CHAF1B
  LogFC CAF1B_HUMAN: -1.512
Protein Q13188 GN=STK3
  LogFC STK3_HUMAN: 0.6701
Protein Q13257
  Direction MD2L1_HUMAN: Down
  LogFC MD2L1_HUMAN: -1.113
Protein Q13310 GN=PABPC4
  LogFC PABP4_HUMAN: -0.5988
Protein Q13330
  Direction MTA1_HUMAN: Down
  LogFC MTA1_HUMAN: -1.705
Protein Q13362
  Direction 2A5G_HUMAN: Down
  LogFC 2A5G_HUMAN: -1.224
Protein Q13501
  Direction SQSTM_HUMAN: Down
  LogFC SQSTM_HUMAN: -1.0987
Protein Q13509 GN=TUBB3
  LogFC TBB3_HUMAN: 0.7942
Protein Q13563 GN=PKD2
  LogFC PKD2_HUMAN: -0.7081
Protein Q13595 GN=TRA2A
  LogFC TRA2A_HUMAN: -0.7095
Protein Q13885 GN=TUBB2A
  LogFC TBB2A_HUMAN: 0.9316
Protein Q13907 GN=IDI1
  LogFC IDI1_HUMAN: 0.7277
Protein Q14008
  Direction CKAP5_HUMAN: Down
  LogFC CKAP5_HUMAN: -0.6393
Protein Q14123
  Direction PDE1C_HUMAN: Down
  LogFC PDE1C_HUMAN: -1.117
Protein Q14152
  Direction EIF3A_HUMAN: Down
  LogFC EIF3A_HUMAN: -0.389
Protein Q14157
  Direction UBP2L_HUMAN: Down
  LogFC UBP2L_HUMAN: -0.8648
Protein Q14166 GN=TTLL12
  LogFC TTL12_HUMAN: 0.5228
Protein Q14185
  Direction DOCK1_HUMAN: Down
  LogFC DOCK1_HUMAN: -1.615
Protein Q14204
  Direction DYHC1_HUMAN: Down
  LogFC DYHC1_HUMAN: -0.3165
Protein Q14249
  Direction NUCG_HUMAN: Down
  LogFC NUCG_HUMAN: -2.036
Protein Q14254
  Direction FLOT2_HUMAN: Down
  LogFC FLOT2_HUMAN: -1.186
Protein Q14393
  Direction GAS6_HUMAN: Down
  LogFC GAS6_HUMAN: -2.504
Protein Q14651 GN=PLS1
  LogFC PLSI_HUMAN: 1.442
Protein Q14683
  Direction SMC1A_HUMAN: Down
  LogFC SMC1A_HUMAN: -0.5055
Protein Q14693 GN=LPIN1
  LogFC LPIN1_HUMAN: 0.9551
Protein Q14694
  Direction UBP10_HUMAN: Down
  LogFC UBP10_HUMAN: -0.9311
Protein Q14807
  Direction KIF22_HUMAN: Down
  LogFC KIF22_HUMAN: -3.469
Protein Q14839 GN=CHD4
  LogFC CHD4_HUMAN: -0.985
Protein Q14974
  Direction IMB1_HUMAN: Down
  LogFC IMB1_HUMAN: -0.6185
Protein Q15003
  Direction CND2_HUMAN: Down
  LogFC CND2_HUMAN: -1.758
Protein Q15020 GN=SART3
  LogFC SART3_HUMAN: -0.5999
Protein Q15021
  Direction CND1_HUMAN: Down
  LogFC CND1_HUMAN: -2.0518
Protein Q15036
  Direction SNX17_HUMAN: Down
  LogFC SNX17_HUMAN: -1.453
Protein Q15046
  Direction SYK_HUMAN: Down
  LogFC SYK_HUMAN: -0.4877
Protein Q15070
  Direction OXA1L_HUMAN: Down
  LogFC OXA1L_HUMAN: -1.062
Protein Q15126 GN=PMVK
  LogFC PMVK_HUMAN: 1.337
Protein Q15149
  Direction PLEC_HUMAN: Down
  LogFC PLEC_HUMAN: -0.7
Protein Q15223 GN=NECTIN1
  LogFC NECT1_HUMAN: -1.589
Protein Q15345
  Direction LRC41_HUMAN: Down
  LogFC LRC41_HUMAN: -1.0607
Protein Q15418 GN=RPS6KA1
  LogFC KS6A1_HUMAN: 1.988
Protein Q15435 GN=PPP1R7
  LogFC PP1R7_HUMAN: 0.5315
Protein Q15555 GN=MAPRE2
  LogFC MARE2_HUMAN: 3.286
Protein Q15642 GN=TRIP10
  LogFC CIP4_HUMAN: 1.0065
Protein Q15645
  Direction PCH2_HUMAN: Down
  LogFC PCH2_HUMAN: -0.9654
Protein Q15800
  Direction MSMO1_HUMAN: Down
  LogFC MSMO1_HUMAN: -0.8085
Protein Q15833 GN=STXBP2
  LogFC STXB2_HUMAN: 0.5821
Protein Q16513
  Direction PKN2_HUMAN: Down
  LogFC PKN2_HUMAN: -0.7145
Protein Q16531
  Direction DDB1_HUMAN: Down
  LogFC DDB1_HUMAN: -0.3715
Protein Q16555 GN=DPYSL2
  LogFC DPYL2_HUMAN: 0.9356
Protein Q16763 GN=UBE2S
  LogFC UBE2S_HUMAN: -1.229
Protein Q16850 GN=CYP51A1
  LogFC CP51A_HUMAN: -0.6587
Protein Q16880 GN=UGT8
  LogFC CGT_HUMAN: 1.956
Protein Q16881 GN=TXNRD1
  LogFC TRXR1_HUMAN: 0.6582
Protein Q92542
  Direction NICA_HUMAN: Down
  LogFC NICA_HUMAN: -1.398
Protein Q92544
  Direction TM9S4_HUMAN: Down
  LogFC TM9S4_HUMAN: -1.2661
Protein Q92609 GN=TBC1D5
  LogFC TBCD5_HUMAN: -0.4214
Protein Q92621 GN=NUP205
  LogFC NU205_HUMAN: -0.751
Protein Q92626
  Direction PXDN_HUMAN: Down
  LogFC PXDN_HUMAN: -0.8349
Protein Q92754
  Direction AP2C_HUMAN: Down
  LogFC AP2C_HUMAN: -1.895
Protein Q92797
  Direction SYMPK_HUMAN: Down
  LogFC SYMPK_HUMAN: -0.8433
Protein Q92845 GN=KIFAP3
  LogFC KIFA3_HUMAN: 1.431
Protein Q92888
  Direction ARHG1_HUMAN: Down
  LogFC ARHG1_HUMAN: -0.7775
Protein Q92974
  Direction ARHG2_HUMAN: Down
  LogFC ARHG2_HUMAN: -0.6456
Protein Q93008 GN=USP9X
  LogFC USP9X_HUMAN: 0.7813
Protein Q93034
  Direction CUL5_HUMAN: Down
  LogFC CUL5_HUMAN: -0.617
Protein Q93050 GN=ATP6V0A1
  LogFC VPP1_HUMAN: 1.447
Protein Q93074
  Direction MED12_HUMAN: Down
  LogFC MED12_HUMAN: -2.0643
Protein Q93100
  Direction KPBB_HUMAN: Down
  LogFC KPBB_HUMAN: -2.118
Protein Q99442
  Direction SEC62_HUMAN: Down
  LogFC SEC62_HUMAN: -2.138
Protein Q99536 GN=VAT1
  LogFC VAT1_HUMAN: 1.276
Protein Q99567
  Direction NUP88_HUMAN: Down
  LogFC NUP88_HUMAN: -0.8011
Protein Q99574 GN=SERPINI1
  LogFC NEUS_HUMAN: 4.964
Protein Q99615 GN=DNAJC7
  LogFC DNJC7_HUMAN: -0.8769
Protein Q99735
  Direction MGST2_HUMAN: Down
  LogFC MGST2_HUMAN: -1.016
